For orientation: IC50 means the concentration needed to halve the response being measured. A high value points to lower potency.

Holding throughout (format): cell-based, human
The test system of assay [1] is HeLa (cervical cancer). Briefly: MTT cell viability assay, HeLa. The conditions noted are these: 72 h of incubation, mean ± SD. Summed up: (§1)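 Cells were seeded at 5 × 10^3 cells/well and exposed for 72 h to compounds at 1, 10, 25, 50 and 100 μM, with DMSO stocks. MTT (0.5 mg/mL) was added for 2 h at 37 °C, and formazan absorbance was read at 550 nm. Values are mean ± SD of at least three independent triplicate experiments.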
Background: Tetrazolium dyes change colour on reduction, which living cells bring about.

The subject of assay [2] is HCT-116. The assay is described as follows: Mitochondrial membrane potential (JC-1), HCT-116. The conditions noted are these: HCT-116, 24 h, low and moderate concentrations. As to the method: Loss of the mitochondrial membrane potential (Δψm) is one of the earliest indicators of an apoptosis. It can be detected using fluorescent dye JC-1 (5,5′,6,6′-tetrachloro-1,1′,3,3′-tetraethylbenzimidazolylcarbocyanine iodide) exited with blue laser. JC-1 spontaneously forms dimer complexes (J aggregates) with red fluorescent or remain as a monomers with green fluorescence in cells with high and low Δψm, respectively.
Half an hour before the end of 24 h-treatment 2.5 μg/mL of JC-1 (5,5′,6,6′-tetrachloro-1,1′,3,3′-tetraethylbenzimidazolylcarbocyanine iodide) was added to the cell medium. As a negative control 100 μM CCCP (carbonyl cyanide 3-chlorophenylhydrazone) was used 15 min before JC-1 treatment. Following treatment cells were twice washed with PBS and analyzed with flow cytometer (LSR II, BD Biosciences).
Green and red fluorescence were observed using FL-1 (530 ± 30 nm) and FL-2 (585 ± 42 nm) channels, respectively. Percentage of cell population in red or green fluorescence gate indicated the level of Δψm. Decreasing red fluorescence cell population indicated lower Δψm.

The subject of assay [3] is HeLa. The assay is described as follows: Cell morphology (light microscope), HeLa. The conditions noted are these: 25–100 μM, 24 h. As to the method: To evaluate the changes in morphology of the treated cells, they were incubated with increasing concentrations of 37 (HCT-116, HeLa) or 46 (MCF-7) for 24 h and observed using light microscope.
The HCT-116, HeLa and MCF-7cells were seeded on 24-well plates (5 × 10^4/per well) in 300 μL of medium and incubated with 37 (HCT-116, HeLa) or 46 (MCF-7) for 24 h. Cells incubated with increasing concentrations of compounds (25–100 μM) were observed after 24 h using light microscope Axiovert 200 (Zeiss, Oberkochen, Germany).

Assay [4] has as its system HeLa. Briefly: Cell cycle analysis (sub-G1, DAPI flow cytometry), HeLa. The settings on record: 24 h, dose dependent increase, mean ± SD. As to the method: One of the most common mechanisms in anticancer drug treatment is changes in cell cycle, which can be measured by DNA content. Cell cycle distribution in HCT-116, HeLa and MCF-7 cells was examined to determine cycle arrest and/or presence of sub-G1 after treatment with compounds 37 and 46. […] Cell populations data are expressed as the mean ± SD of at least three independent experiments.
Following treatment, cells were fixed in cold 70% ethanol for 30 min. Fixed cells were stained for 15 min in buffer containing 500 μg/mL RNAse A (EURx, Gdansk, Poland) and 2.5 μg/mL of DAPI (Sigma-Aldrich, Munich, Germany). The fluorescence of DAPI was measured at 440 ± 40 nm with a flow cytometer (LSR II, BD Biosciences, Mountain View, CA, USA). Each experiment was performed at least in triplicate. Data were analyzed off-line using the BD FACSDiva (BD Biosciences).
Background: A flow cytometer gives signals particle by particle.

Assay [5] deals with HCT-116 (colon cancer). The assay is described as follows: MTT cell viability assay, HCT-116. The conditions noted are these: 72 h of incubation, mean ± SD. The procedure, abridged: as §1
Assay [6] deals with active caspases (caspases 1 through 9) in HeLa cells. Briefly: Caspase activity (FAM-VAD-FMK, flow cytometry), HeLa. The conditions noted are these: 100 μM, increase over control. As for the experimental part: Caspase activation plays a central role in the execution of apoptosis and is required for the occurrence of its biochemical and morphological hallmarks, such as DNA fragmentation, formation of apoptotic bodies and chromatin condensation. The ability of the examined compounds to induce caspase activity was determined with the use of a fluorescent labeled caspase inhibitor, a carboxyfluorescein (FAM) derivative of valylalanylaspartic acid (VAD) fluoromethyl ketone (FMK).
FAM-VAD-FMK contains a target sequence recognized by active caspases (caspases 1 through 9). Binding to this sequence inhibits the enzymatic activity of caspases and allows for the determination of their activity through the direct measurement of fluorescent intensity of the bound inhibitor. […] The strongest influence on caspase activation was noticed for the HeLa cell line, where that cell population increased by 31% in the presence of 37 at a concentration of 100 μM.
Caspase activity was determined with the FLICA Apoptosis Detection Kit (Immunochemistry Technologies, Bloomington, MN, USA) according to the manufacturer’s instructions. […] The fluorescence intensity of fluorescein was determined with flow cytometry (BD FACSCalibur) and caspase activity was determined as the amount of fluorescence emitted from caspase inhibitors bound to the caspases.

As for `Cc1cc(S(=O)(=O)Nc2nncc(-c3ccc(C(F)(F)F)cc3)n2)c(SCc2cccc3ccccc23)cc1Cl` [Compound 37, 4-Chloro-5-methyl-2-[(naphthalene-1-yl)methylthio]-N-[5-(4-trifluoromethylphenyl)-1,2,4-triazin-3-yl]-benzenesulfonamide], the IC50 in assay [1] was 34 ± 2 µM; in assay [1] (Homo sapiens, 72 h) it was 34 to 42 µM; in assay [5], 36 ± 1 µM; in assay [5] (Homo sapiens, HCT-116, 72 h) it was 36 to 38 µM. The “effect on mitochondrial membrane potential (Δψm)” value in assay [2] is on record as “remarkably decreased Δψm”. In assay [3], the morphological changes result is “shrinkage of the cells, detachment from the surface”. In addition, the Sub-G1 cell population in assay [4] was 21% ± 3.4%. Also, the “increase of cell population with activated caspases” value in assay [6] is reported as 31%.
